What was measured:
[1] = target: erbB2 receptor autophosphorylation (Homo sapiens, UniProt P04626); assay: p-erbB2 reduction in BT-474 tumors by ELISA; type: in vivo; conditions: 0.5 hr post-dosing on day 22; for inhibition in vivo at 30 mg/kg / inhibition in vivo at 50 mg/kg: BT-474, po, 0.5 h; for % p-erbB2 reduction: PO
Procedure: Exponentially growing BT-474 cells (RPMI 1640 with 10 mM HEPES, 10% FBS, and pen/strep [Gibco]) were harvested and inoculated SC (5 million cells/animal) into female athymic mice. Trochar pieces of BT-474 tumors were then implanted into the right flank of animals. BT-474 tumor bearing mice (50-320 mm^3 in size, N=40) were randomized in 7 groups consisting 5-6 animals each. Animals were treated with vehicle (PO, BID) or the test compound (PO, QD or BID) as described in Table 4. The tumor measurements and body weight changes were obtained on days 1, 6, 11, 15 and 22. Tumor volume was calculated by the following formula: Tumor volume (mm^3)═(W×W)/2×L (L=length & W=width). Blood samples (˜50 μl) were isolated at 0.5, 1, 2, 4 and 8 hrs after dosing on day 22 for PK-analysis. Tumors were isolated at 0.5 hr post-dosing on day 22 for PD-analysis by ELISA.

SK-OV-3 tumors = assay: SK-OV-3 xenograft tumor growth in athymic mice; type: in vivo, human; conditions: for % Growth inhibition / Tumor volume Day 1 (Mean ± SE) / Tumor volume Day 18 (Mean ± SE): PO
Description: The in vivo anti-tumor activity of the compounds for use in the methods of the present invention can be determined by the amount of inhibition of tumor growth by a test compound relative to a control. The tumor growth inhibitory effects of various compounds can be measured according to the method of Corbett T. H., et al., “Tumor Induction Relationships in Development of Transplantable Cancers of the Colon in Mice for Chemotherapy Assays, with a Note on Carcinogen Structure”, Cancer Res., 35, 2434-2439 (1975) and Corbett T. H., et al., “A Mouse Colon-tumor Model for Experimental Therapy”, Cancer Chemother. Rep. (Part 2)”, 5, 169-186 (1975), with slight modifications. Tumors can be induced in the left flank of mice by subcutaneous (sc) injection of 1-5 million log phase cultured tumor cells suspended in 0.1 ml RPMI 1640 medium. After sufficient time has elapsed for the tumors to become palpable (˜100-150 mm^3 in size/5-6 mm in diameter) the test animals (athymic female mice) are treated with test compound (formulated at a concentration of 10 to 15 mg/ml in 5 Gelucire or 0.5% methyl cellulose) by the intravenous (iv) or oral (po) route of administration once or twice daily for 7 to 29 consecutive days. In order to determine an anti-tumor effect, the tumor is measured in millimeters with a Vernier caliper across two diameters and the tumor size (mm^3) is calculated using the formula: Tumor size (mm^3)=(W×W)/2×L (L=length and W=width), according to the methods of Geran, R. I., et al. “Protocols for Screening Chemical Agents and Natural Products Against Animal Tumors and Other Biological Systems”, Third Edition, Cancer Chemother. Rep., 3, 1-104 (1972). Results are expressed as percent inhibition, according to the formula: Inhibition Growth (%)=[100-{(% Growth of Treated/% Growth of Control)×100}]. The flank site of tumor implantation provides reproducible dose/response effects for a variety of chemotherapeutic agents, and the method of measurement (tumor diameter) is a reliable method for assessing tumor growth rates.
(§1) SK-OV-3 cells obtained from ATCC (Rockville, Md.) were grown in McCoy's medium containing 10% fetal bovine serum and pen/strep. Exponentially growing cells were harvested and inoculated SC (5 million cells/animal) into female athymic mice. The tumor measurements and body weight changes were obtained on days 1, 3, 6, 10, 13 and 18. Tumor volume was calculated by the following formula: Tumor volume (mm^3)═(W×W)/2×L (L=length & W=width). Blood samples (˜50 μl) were isolated at 0.5, 1, 2, 4 and 8 hrs after dosing on day 18 for PK-analysis. Tumors were isolated at 0.5 hr post-dosing on day 18 for PD-analysis by ELISA. The p-erbB2 reduction, tumor volume and body weight changes in control and test compound treated animals are shown below in Table 2.

[2] = Body weight and tolerability, MDA-MB-453 study; type: in vivo, mice; conditions: PO
Procedure: Study Design: Exponentially growing MDA-MB-453 cells (DMEM/F12 with 10% FBS, and pen/strep [Gibco]) were harvested and inoculated SC (5 million cells/animal) into female athymic mice. MDA-MB-453 tumor bearing mice (˜100 mm^3 in size, N=64) were randomized in 8 groups consisting 8 animals each. Animals were treated with vehicle (PO, QD or BID) or the test compound (PO, QD or BID) as described in Table 6. The tumor measurements and body weight changes were obtained on days 1, 3, 7, 10, 14, 17, 21, 24, and 29. Tumor volume was calculated by the following formula: Tumor volume (mm^3)═(W×W)/2×L (L=length & W=width). Blood samples (˜50 μl) were isolated at 0.5, 1, 2, 4 and 8 hrs after dosing on day 29 for PK-analysis. Tumors were isolated at 0.5 hr post-dosing on day 29 for PD-analysis by ELISA.

[3] = Body weight and tolerability, SK-OV-3 study; type: in vivo, mice; conditions: PO
Procedure: as §1

[4] = BID, 30 mg/kg (Total Daily Dose = 60 mg/kg)

Sequence of erbB2 receptor autophosphorylation (P04626 23-1255): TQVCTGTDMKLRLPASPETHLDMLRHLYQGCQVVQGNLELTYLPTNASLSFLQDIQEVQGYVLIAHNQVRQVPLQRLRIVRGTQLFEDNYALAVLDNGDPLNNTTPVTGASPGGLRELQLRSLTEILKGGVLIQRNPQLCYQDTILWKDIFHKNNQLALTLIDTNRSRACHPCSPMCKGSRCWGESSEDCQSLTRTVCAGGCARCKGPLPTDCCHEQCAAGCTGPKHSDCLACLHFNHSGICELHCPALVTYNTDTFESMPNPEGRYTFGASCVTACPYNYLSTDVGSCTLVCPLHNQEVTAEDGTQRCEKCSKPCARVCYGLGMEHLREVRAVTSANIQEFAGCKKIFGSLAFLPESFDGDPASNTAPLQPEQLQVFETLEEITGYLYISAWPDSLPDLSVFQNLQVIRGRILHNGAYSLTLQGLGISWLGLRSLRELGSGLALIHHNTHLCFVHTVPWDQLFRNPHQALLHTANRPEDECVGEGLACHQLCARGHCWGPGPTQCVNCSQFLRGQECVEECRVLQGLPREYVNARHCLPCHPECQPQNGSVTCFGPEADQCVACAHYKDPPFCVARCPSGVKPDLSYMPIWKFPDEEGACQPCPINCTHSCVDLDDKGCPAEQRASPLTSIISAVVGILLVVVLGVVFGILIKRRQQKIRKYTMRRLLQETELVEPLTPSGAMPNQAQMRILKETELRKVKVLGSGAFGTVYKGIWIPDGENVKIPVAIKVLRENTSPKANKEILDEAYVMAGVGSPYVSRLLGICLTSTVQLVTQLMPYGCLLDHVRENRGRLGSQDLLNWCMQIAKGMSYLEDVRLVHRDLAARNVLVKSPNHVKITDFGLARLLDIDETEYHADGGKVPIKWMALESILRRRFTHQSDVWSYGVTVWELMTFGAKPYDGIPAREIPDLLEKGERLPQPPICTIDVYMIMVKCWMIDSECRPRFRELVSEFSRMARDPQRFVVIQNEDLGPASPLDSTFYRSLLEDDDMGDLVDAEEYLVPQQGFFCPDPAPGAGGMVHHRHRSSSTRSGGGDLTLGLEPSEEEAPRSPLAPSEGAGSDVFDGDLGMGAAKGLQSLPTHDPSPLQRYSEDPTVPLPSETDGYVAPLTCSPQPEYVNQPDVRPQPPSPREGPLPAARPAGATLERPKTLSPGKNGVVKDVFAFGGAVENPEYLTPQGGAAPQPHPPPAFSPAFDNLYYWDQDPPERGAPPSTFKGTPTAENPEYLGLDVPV

## COCC(=O)NC/C=C/c1ccc2ncnc(Nc3ccc(Oc4ccc(C)nc4)c(C)c3)c2c1 [Test Compound, E-2-Methoxy-N-(3-{4-(3-methyl-4-(6-methyl-pyridin-3-yloxy)-phenylamino)-quinazolin-6-yl}-allyl)-acetamide]
[1]; [4]
  inhibition in vivo at 30 mg/kg: 26%
  % p-erbB2 reduction: 26%
[1]; BID, 50 mg/kg (Total Daily Dose = 100 mg/kg)
  inhibition in vivo at 50 mg/kg: ~75%
[1]; QD, 30 mg/kg
  inhibition in vivo at 30 mg/kg: 57%
[1]; QD, 50 mg/kg
  inhibition in vivo at 50 mg/kg: ~75%
[1]; BID, 15 mg/kg (Total Daily Dose = 30 mg/kg)
  % p-erbB2 reduction: below the limit of detection
[1]; QD, 15 mg/kg, 15 mg/kg
  % p-erbB2 reduction: below the limit of detection
SK-OV-3 tumors; 18 days
  tumor growth inhibition, 100 mg/kg BID relative to 200 mg/kg QD: 2 fold
SK-OV-3 tumors; BID 25 mg/kg (Total Daily Dose = 50 mg/kg), 18 days
  % Growth inhibition: 29%
SK-OV-3 tumors; BID 25 mg/kg (Total Daily Dose = 50 mg/kg), 18 days, listed as test compound
  % Growth inhibition: Approximately 29%
SK-OV-3 tumors; BID 25 mg/kg
  Tumor volume Day 1 (Mean ± SE): 93 ± 12 mm^3
  Tumor volume Day 18 (Mean ± SE): 281 ± 42 mm^3
SK-OV-3 tumors; BID 50 mg/kg (Total Daily Dose = 100 mg/kg), 18 days
  % Growth inhibition: 45%
SK-OV-3 tumors; BID 50 mg/kg
  Tumor volume Day 1 (Mean ± SE): 94 ± 13 mm^3
  Tumor volume Day 18 (Mean ± SE): 218 ± 38 mm^3
SK-OV-3 tumors; BID 100 mg/kg (Total Daily Dose = 200 mg/kg), 18 days
  % Growth inhibition: 71%
SK-OV-3 tumors; BID 100 mg/kg
  Tumor volume Day 1 (Mean ± SE): 94 ± 13 mm^3
  Tumor volume Day 18 (Mean ± SE): 115 ± 24 mm^3
SK-OV-3 tumors; QD 50 mg/kg, 18 days
  % Growth inhibition: 2%
SK-OV-3 tumors; QD 50 mg/kg, 18 days, listed as test compound
  % Growth inhibition: non-efficacious
SK-OV-3 tumors; QD 50 mg/kg
  Tumor volume Day 1 (Mean ± SE): 98 ± 14 mm^3
  Tumor volume Day 18 (Mean ± SE): 390 ± 38 mm^3
SK-OV-3 tumors; QD 100 mg/kg, 18 days
  % Growth inhibition: 23%
SK-OV-3 tumors; QD 100 mg/kg
  Tumor volume Day 1 (Mean ± SE): 97 ± 14 mm^3
  Tumor volume Day 18 (Mean ± SE): 306 ± 36 mm^3
SK-OV-3 tumors; QD 200 mg/kg, 18 days
  % Growth inhibition: 36%
SK-OV-3 tumors; QD 200 mg/kg
  Tumor volume Day 1 (Mean ± SE): 98 ± 14 mm^3
  Tumor volume Day 18 (Mean ± SE): 254 ± 39 mm^3
[2]; BID 25 mg/kg
  average body weight Day 1: 22 g
  average body weight Day 29: 23 g
[2]; BID 50 mg/kg
  average body weight Day 1: 23 g
  average body weight Day 29: 24 g
[2]; BID 100 mg/kg
  average body weight Day 1: 23 g
  average body weight Day 29: 25 g
[2]; QD 50 mg/kg
  average body weight Day 1: 23 g
  average body weight Day 29: 25 g
[2]; QD 100 mg/kg
  average body weight Day 1: 23 g
  average body weight Day 29: 25 g
[2]; QD 200 mg/kg
  average body weight Day 1: 22 g
  average body weight Day 29: 24 g
[2]; QD or BID, 29 days
  tolerability, body weight loss or animal mortality: well tolerated and there was no body weight loss or animal mortality
[3]; BID 25 mg/kg
  average body weight Day 1: 24 g
  average body weight Day 18: 26 g
[3]; BID 50 mg/kg
  average body weight Day 1: 24 g
  average body weight Day 18: 25 g
[3]; BID 100 mg/kg
  average body weight Day 1: 23 g
  average body weight Day 18: 23 g
[3]; QD 50 mg/kg
  average body weight Day 1: 23 g
  average body weight Day 18: 24 g
[3]; QD 100 mg/kg
  average body weight Day 1: 23 g
  average body weight Day 18: 25 g
[3]; QD 200 mg/kg
  average body weight Day 1: 23 g
  average body weight Day 18: 24 g
[3]; QD or BID, 18 days
  tolerability, body weight loss or animal mortality: well tolerated and there was no body weight loss or animal mortality
